# Experimental data as given in patent US9890146B2, “Compound having selective EP2 agonist activity” (ONO PHARMACEUTICAL CO., LTD., priority 2014, dated 2018).
# Target: T1, human EP2 (Homo sapiens, UniProt P43116)
# T1 construct: expressed in transfected cells; host or cells: CHO cells (EP2-CHO)
# Experiment: Measurement of EP2 agonist activity (measurement of cAMP concentration)
# Format: cell-based
# Details: EP2-CHO cells, cAMP production (HTRF), reaction 30 minutes at room temperature; read-out: EP2 agonist activity EC50
# Procedure: Using Chem1 cells or CHO cells in which various prostanoid receptors were forcibly expressed, respectively, agonist activities of test compounds on various prostanoid receptors was determined employing, as a measure, an intracellular cyclic AMP (hereinbelow, abbreviated as “cAMP”) production amount or an intracellular calcium concentration.
# The test compound and a control substance (PGE2 and PGF2α) were dissolved in dimethyl sulfoxide (DMSO) to prepare a 10 mmol/L solution. The 10 mmol/L solution thus prepared was thawed upon use, then serially diluted with DMSO, and then diluted with a buffer solution for measurement use or a buffer solution for measurement use 2, and then the resulting solution was subjected to an experiment.
# Cells forcibly expressing various prostanoid receptors were standing-cultured at 37° C. in the presence of 5% CO2 using a DMEM medium (Sigma) (for culturing FP-Chem1) containing inactivated (56° C., 30 minutes) 9.8 vol % nondialysed-FBS (Life Technologies), 1 vol % Non Essential Amino Acids (Life Technologies), 10 mmol/L HEPES Buffer Solution (Life Technologies), 0.5 vol % GENETICIN (Life Technologies) and 1% penicillin-streptomycin (Life Technologies) or an α-MEM medium (Sigma) (for culturing EP2-CHO) containing inactivated (56° C., 30 minutes) 9.8 vol % dialysed-FBS (Life Technologies) and penicillin-streptomycin-glutamine (Life Technologies). Subculturing was carried out by the following manner.
# The medium was removed, and washed with a phosphate-buffered physiological saline not containing Ca^2+ and Mg^2+ one time. A proper amount of trypsin-EDTA (Life Technologies) was added, and this was incubated at room temperature, cells were peeled, and a medium having a volume which is 10-fold a volume of trypsin-EDTA was added to stop an enzymatic reaction. After cells were recovered into a centrifuging tube, and centrifuged at room temperature for 3 minutes at 120 g, the supernatant was removed. Cells were suspended in a proper amount of a medium, and seeded in a culturing flask.
# On the measurement day, a medium was removed, and EP2-CHO was washed with a phosphate-buffered physiological saline containing 2 mmol/L EDTA and not containing Ca^2+ and Mg^2+ one time. A proper amount of the phosphate-buffered physiological saline containing 2 mmol/L EDTA and not containing Ca^2+ and Mg^2+ was added, this was incubated at 37° C. in the presence of 5% CO2, cells were peeled, cells were recovered into a centrifuging tube, and centrifuged at room temperature for 3 minutes at 550 g, and the supernatant was removed. Cells were suspended in a proper amount of a buffer solution for measurement 1 (MEM medium (Invitrogen) containing 1.0 w/v % bovine serum albumin (Sigma) and 2 μmol/L diclofenac (Sigma)), and centrifuged at room temperature for 3 minutes at 200 g, and the supernatant was removed. Cells were suspended in a buffer solution for measurement 2 (MEM medium (Invitrogen) containing 1.0 w/v % bovine serum albumin (Sigma), 2 μmol/L diclofenac (Sigma) and 1 mmol/L 3-isobutyl-1-methylxanthine), and each 25 μL of the suspension was dispensed into a 96-well ½ area plate so that the cell number per well became […]. A buffer solution for measurement 2 (25 μL) containing an agonist at a variety of concentrations was added to carry out a reaction at room temperature for 30 minutes. Measurement of a cAMP concentration was carried out using the cAMP HTRF HiRange kit (CIS bio International). According to the two step protocol of the kit manual, each 25 μL of cAMP-D2 and Cryptase diluted with a lysis buffer were added, and this was incubated at room temperature for 1 hour. After incubation for 1 hour, time resolution fluorescence at 620 nm and 660 nm when excited at 340 nm was measured using SpectraMax M5e (Molecular Device), and a ratio (TRF ratio) was obtained, thereby, a cAMP concentration was calculated from a calibration line. […]
# T1 sequence (P43116 whole entry): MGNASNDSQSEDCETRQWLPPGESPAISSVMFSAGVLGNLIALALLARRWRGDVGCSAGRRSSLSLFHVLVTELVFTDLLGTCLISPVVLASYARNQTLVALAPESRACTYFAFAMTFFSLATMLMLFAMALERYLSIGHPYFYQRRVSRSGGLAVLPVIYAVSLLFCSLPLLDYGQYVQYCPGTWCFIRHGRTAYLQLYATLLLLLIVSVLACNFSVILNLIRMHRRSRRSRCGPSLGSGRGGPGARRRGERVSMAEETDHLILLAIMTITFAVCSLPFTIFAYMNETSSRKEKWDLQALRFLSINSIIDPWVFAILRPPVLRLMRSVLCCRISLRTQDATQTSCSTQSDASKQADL
row,SMILES,EC50
1,"O=C(O)c1csc([C@H]2CC[C@@H]3[C@@H](COc4ccc5c(c4F)CCC5)[C@H](O)C[C@@H]3O2)n1 [1(19), 2-[(2R,4aR,5S,6R,7aS)-5-{[(4-fluoro-2,3-dihydro-1H-inden-5-yl)oxy]methyl}-6-hydroxyoctahydrocyclopenta[b]pyran-2-yl]-1,3-thiazole-4-carboxylic acid]",2.4 nM
2,"O=C(O)c1csc([C@H]2CC[C@@H]3[C@@H](COc4ccccc4)[C@H](O)C[C@@H]3O2)n1 [1(27), 2-[(2R,4aR,5S,6R,7aS)-6-hydroxy-5-(phenoxymethyl)octahydrocyclopenta[b]pyran-2-yl]-1,3-thiazole-4-carboxylic acid]",12 nM
3,"CCc1ccc(OC[C@@H]2[C@H]3CC[C@H](c4nc(C(=O)O)cs4)O[C@H]3C[C@@H]2O)cc1C1CCC1 [9(36), 2-{(2R,4aR,5S,6S,7aS)-5-[(3-cyclobutyl-4-ethylphenoxy)methyl]-6-hydroxyoctahydrocyclopenta[b]pyran-2-yl}-1,3-thiazole-4-carboxylic acid]",3.5 nM
4,"O=C(O)c1csc([C@H]2CC[C@@H]3[C@@H](COc4ccc(C5CC5)c(C5CC5)c4)[C@@H](O)C[C@@H]3O2)n1 [Example 9, 2-{(2R,4aR,5S,6S,7aS)-5-[(3,4-dicyclopropylphenoxy)methyl]-6-hydroxyoctahydrocyclopenta[b]pyran-2-yl}-1,3-thiazole-4-carboxylic acid]",2.8 nM
5,"O=C(O)c1csc([C@H]2CC[C@@H]3[C@@H](COc4ccc5c(c4)CC5)[C@H](O)C[C@@H]3O2)n1 [1(15), 2-{(2R,4aR,5S,6R,7aS)-5-[(bicyclo[4.2.0]octa-1,3,5-trien-3-yloxy)methyl]-6-hydroxyoctahydrocyclopenta[b]pyran-2-yl}-1,3-thiazole-4-carboxylic acid]",14 nM
6,"CCc1ccc(OC[C@@H]2[C@H]3CC[C@H](c4nc(C(=O)O)cs4)O[C@H]3C[C@@H]2O)cc1CC [9(23), 2-{(2R,4aR,5S,6S,7aS)-5-[(3,4-diethylphenoxy)methyl]-6-hydroxyoctahydrocyclopenta[b]pyran-2-yl}-1,3-thiazole-4-carboxylic acid]",1.6 nM
7,"O=C(O)c1csc([C@H]2CC[C@@H]3[C@@H](COc4ccc(Cl)c(C5CC5)c4)[C@H](O)C[C@@H]3O2)n1 [1(22), 2-{(2R,4aR,5S,6R,7aS)-5-[(4-chloro-3-cyclopropylphenoxy)methyl]-6-hydroxyoctahydrocyclopenta[b]pyran-2-yl}-1,3-thiazole-4-carboxylic acid]",2.3 nM
8,"CCc1ccc(OC[C@@H]2[C@H]3CC[C@H](c4nc(C(=O)O)cs4)O[C@H]3C[C@@H]2O)cc1C1CC1 [9(35), 2-{(2R,4aR,5S,6S,7aS)-5-[(3-cyclopropyl-4-ethylphenoxy)methyl]-6-hydroxyoctahydrocyclopenta[b]pyran-2-yl}-1,3-thiazole-4-carboxylic acid]",2.4 nM
9,"O=C(O)c1csc([C@H]2CC[C@@H]3[C@@H](COc4ccc5ccoc5c4)[C@H](O)C[C@@H]3O2)n1 [1(16), 2-{(2R,4aR,5S,6R,7aS)-5-[(1-benzofuran-6-yloxy)methyl]-6-hydroxyoctahydrocyclopenta[b]pyran-2-yl}-1,3-thiazole-4-carboxylic acid]",5.5 nM
10,"O=C(O)c1csc([C@H]2CC[C@@H]3[C@@H](COc4ccc5c(c4)CCC5)[C@H](O)C[C@@H]3O2)n1 [1(6), 2-{(2R,4aR,5S,6R,7aS)-5-[(2,3-dihydro-1H-inden-5-yloxy)methyl]-6-hydroxyoctahydrocyclopenta[b]pyran-2-yl}-1,3-thiazole-4-carboxylic acid]",7.5 nM
11,"O=C(O)c1csc([C@H]2CC[C@@H]3[C@@H](COc4ccc5[nH]ccc5c4)[C@H](O)C[C@@H]3O2)n1 [1(12), 2-{(2R,4aR,5S,6R,7aS)-6-hydroxy-5-[(1H-indol-5-yloxy)methyl]octahydrocyclopenta[b]pyran-2-yl}-1,3-thiazole-4-carboxylic acid]",19 nM
12,"Cc1ccc(OC[C@@H]2[C@H]3CC[C@H](c4nc(C(=O)O)cs4)O[C@H]3C[C@H]2O)cc1C [1(7), 2-{(2R,4aR,5S,6R,7aS)-5-[(3,4-dimethylphenoxy)methyl]-6-hydroxyoctahydrocyclopenta[b]pyran-2-yl}-1,3-thiazole-4-carboxylic acid]",3.3 nM
13,"O=C(O)c1csc([C@H]2CC[C@@H]3[C@@H](COc4cccc5c4CCC5)[C@H](O)C[C@@H]3O2)n1 [1(13), 2-{(2R,4aR,5S,6R,7aS)-5-[(2,3-dihydro-1H-inden-4-yloxy)methyl]-6-hydroxyoctahydrocyclopenta[b]pyran-2-yl}-1,3-thiazole-4-carboxylic acid]",1.1 nM

# The next lines start with the values.
row,EC50,SMILES
1,0.5 nM,"Cc1cc(OC[C@@H]2[C@H]3CC[C@H](c4nc(C(=O)O)cs4)O[C@H]3C[C@H]2O)ccc1[N+](=O)[O-] [1(4), 2-{(2R,4aR,5S,6R,7aS)-6-hydroxy-5-[(3-methyl-4-nitrophenoxy)methyl]octahydrocyclopenta[b]pyran-2-yl}-1,3-thiazole-4-carboxylic acid]"
2,0.86 nM,"O=C(O)c1csc([C@H]2CC[C@@H]3[C@@H](COc4ccc5c(c4)CCC5)[C@@H](O)C[C@@H]3O2)n1 [9(1), 2-{(2R,4aR,5S,6S,7aS)-5-[(2,3-dihydro-1H-inden-5-yloxy)methyl]-6-hydroxyoctahydrocyclopenta[b]pyran-2-yl}-1,3-thiazole-4-carboxylic acid]"
3,0.16 nM,"Cc1ccc(OC[C@@H]2[C@H]3CC[C@H](c4nc(C(=O)O)cs4)O[C@H]3C[C@@H]2O)cc1Cl [9(3), 2-{(2R,4aR,5S,6S,7aS)-5-[(3-chloro-4-methylphenoxy)methyl]-6-hydroxyoctahydrocyclopenta[b]pyran-2-yl}-1,3-thiazole-4-carboxylic acid]"
4,0.074 nM,CSc1cc(OC[C@@H]2[C@H]3CC[C@H](c4nc(C(=O)O)cs4)O[C@H]3C[C@@H]2O)ccc1C [9(25)]
5,0.91 nM,"O=C(O)c1csc([C@H]2CC[C@@H]3[C@@H](COc4ccc5c(c4F)CCC5)[C@@H](O)C[C@@H]3O2)n1 [9(5), 2-[(2R,4aR,5S,6S,7aS)-5-{[(4-fluoro-2,3-dihydro-1H-inden-5-yl)oxy]methyl}-6-hydroxyoctahydrocyclopenta[b]pyran-2-yl]-1,3-thiazole-4-carboxylic acid]"
6,0.9 nM,"Cc1cc(OC[C@@H]2[C@H]3CC[C@H](c4nc(C(=O)O)cs4)O[C@H]3C[C@H]2O)ccc1Cl [1(5), 2-{(2R,4aR,5S,6R,7aS)-5-[(4-chloro-3-methylphenoxy)methyl]-6-hydroxyoctahydrocyclopenta[b]pyran-2-yl}-1,3-thiazole-4-carboxylic acid]"
7,0.33 nM,"CCc1cc(OC[C@@H]2[C@H]3CC[C@H](c4nc(C(=O)O)cs4)O[C@H]3C[C@@H]2O)ccc1C [9(4), 2-{(2R,4aR,5S,6S,7aS)-5-[(3-ethyl-4-methylphenoxy)methyl]-6-hydroxyoctahydrocyclopenta[b]pyran-2-yl}-1,3-thiazole-4-carboxylic acid]"
8,0.82 nM,"CCc1cc(OC[C@@H]2[C@H]3CC[C@H](c4nc(C(=O)O)cs4)O[C@H]3C[C@H]2O)ccc1C [1(17), 2-{(2R,4aR,5S,6R,7aS)-5-[(3-ethyl-4-methylphenoxy)methyl]-6-hydroxyoctahydrocyclopenta[b]pyran-2-yl}-1,3-thiazole-4-carboxylic acid]"

# Same assay, conditions: prior-art compounds having an analogous structure, same EP2 test; read-out: EP2 agonist activities, EC50 values
row,EC50,SMILES
1,≥ 10000 nM,CCCCC[C@H](O)/C=C/[C@@H]1[C@H]2CCC(c3ccccc3CC(=O)O)O[C@H]2C[C@H]1O (some centres unmarked) [reference compound]
2,≥ 10000 nM,O=C(O)c1csc([C@H]2CC[C@@H]3[C@@H](/C=C/[C@@H](O)COc4ccccc4)[C@H](O)C[C@@H]3OC2)n1 [reference compound]
